Assay results published in the METLIN SMRT retention time set (Domingo-Almenara et al. 2019).

Assay: gradient 5% acetonitrile 3 min, to 50% in 2 min, to 85% in 15 min, held 3 min, 100 µL/min
Settings: column: Zorbax Extend-C18 2.1 x 50 mm; eluents: water / acetonitrile, 0.1% formic acid
Procedure, shortened: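 Using water and acetonitrile that each contained 0.1% formic acid, mixtures of ~100 pure standards were separated at 100 μL/min on a Zorbax Extend-C18 column (2.1 × 50 mm, 1.8 μm). The HPLC fed a quadrupole time-of-flight mass spectrometer working in positive and negative ionization mode, with dead and dwell volumes of 40 μL and 900 μL. Data were acquired over 3 months. Retention time was read from computationally picked adduct peaks after manual inspection of each.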

Row | Structure (SMILES) | RP-LC retention time [s]
1 | O=C(CSc1nnc2c3sc(N4CCCC4)nc3ncn12)N1CCN(c2ccc(F)cc2)CC1 | 834
2 | COc1cc(=O)n2c(c1C(=O)NC1CCCCCCC1)CCCC2 | 734
3 | COc1cc(-c2nnc(-c3ccc(C)c(S(=O)(=O)N4CCOCC4)c3)o2)cc(OC)c1OC | 891
4 | CCCNC(=O)N1CCc2cc(-c3ccc(C(=O)N4CCOCC4)cc3)ccc21 | 732
5 | Cc1cccc(NC(=O)N2CCCC2c2cc(C(C)C)on2)c1 (stereo unspecified) | 967
6 | COc1ccc(CN2CC(C(=O)N3CCCN(c4cc(=O)n(C)c(=O)n4C)CC3)CC2=O)cc1 (stereo unspecified) | 629
7 | Cc1c(C(=O)N2CCC(C)CC2)cnn1-c1cc(-c2nc(C(C)(C)C)no2)ccn1 | 1240
8 | CCOc1cc(-c2ccc(F)cc2)nc2ccc(NS(=O)(=O)c3cccc(C#N)c3)cc12 | 816
9 | Cc1ccc(Nc2cc(C)nc(N3CCN(C(=O)Nc4cccc(Cl)c4)CC3)n2)cc1 | 800
10 | CN1c2cc(Cl)ccc2C(=O)NC12CCN(C(=O)Nc1ccc3c(c1)OCCO3)CC2 | 781
11 | COCCCNC(=O)C1c2ccccc2C(=O)N1CCc1ccc(C)cc1 (stereo unspecified) | 787
12 | COc1cccc(N2CCCn3c2nc2c3c(=O)n(CC(=O)O)c(=O)n2C)c1 | 671
13 | CC1CCCCN1S(=O)(=O)c1ccc(Cl)c(C(F)(F)F)c1 (stereo unspecified) | 1120
14 | CCCCn1cc(S(=O)(=O)Nc2ccc(F)cc2C)c2cccnc21 | 989
15 | Cc1ccc(Nc2c(-c3ccc(C)cc3)nc3ccccn23)cc1 | 741
16 | O=C([C@@H]1C[C@H](F)CN1C(=O)Nc1ccc(Cl)cc1)N1CCCCC1 | 732
17 | O=c1oc2cc(S(=O)(=O)NCCO)ccc2c2ccc(S(=O)(=O)NCCO)cc12 | 589
18 | CC(=O)Nc1ccc2c(c1)nc(CN1CCN(C(=O)c3ccco3)CC1)n2C | 576
19 | Clc1ccccc1-c1noc(Cc2nnc(-c3cccc(Br)c3)o2)n1 | 1100
20 | Cc1nc2ccc(Cl)cn2c1[N+](=O)[O-] | 820
21 | CCOC(=O)c1[nH]c(C)c(CCC(=O)N2CCC(C(=O)N3CCCCC3)CC2)c1C | 737
22 | COc1ccc(-c2cn3c(CC(=O)Nc4ccc(F)cc4)csc3n2)cc1OC | 729
23 | O=C(CSc1nnc(NC(=O)C2CC2)s1)NCc1ccc(F)cc1 | 674
24 | CN(C)C(=O)c1cc2c(s1)CCC(C(=O)N1CCOCC1)C2 (stereo unspecified) | 781
25 | Fc1cccc(-n2cc(-c3noc(-c4ccc5c(c4)OCO5)n3)nn2)c1 | 1010
26 | Cc1cccc(-c2[nH]c(C(C)(C)C)nc2-c2ccc3nccnc3c2)n1 | 659

Row | Structure (SMILES) | RP-LC retention time [s]
27 | CCCCC(=O)N1CCN(C2CCN(CCC(C)C)C2=O)CC1 (stereo unspecified) | 585
28 | CC(C)CNC(=O)CCc1nc2ccccc2n(CC(=O)NCc2ccc(F)cc2)c1=O | 783
29 | COC(=O)COC(=O)c1cn(-c2ccc(C)cc2)c(=O)c2ccccc12 | 986
30 | CCOC(=O)c1c(C)[nH]c(CCC(=O)NCCC(C)C)c1C | 816
31 | c1ccc(Cc2nnc3sc(-c4ccc5ccccc5n4)nn23)cc1 | 1120
32 | Cc1cc(C)cc(NC(=O)C2CCN(S(=O)(=O)c3c(C)[nH]c(C)c3C(=O)N3CCCC3)CC2)c1 | 695
33 | O=C(CN1CCN(C(=O)Nc2ccc(Cl)cc2)CC1=O)NCc1ccco1 | 685
34 | Cc1nc(CC(=O)NCc2ccccc2C(F)(F)F)sc1C(=O)NCC(C)C | 847
35 | CCOCCn1c(-c2ccccc2Cl)nc2ccccc21 | 707
36 | O=C(O)c1ccc(OCCOc2ccccc2)cc1 | 916
37 | COc1cc(OC)cc(-c2noc(CCn3nc(-c4ccc(Cl)cc4)ccc3=O)n2)c1 | 1060
38 | C[C@@H]1O[C@@H](O[C@H]2C(Oc3cc(O)c4c(=O)c(O)c(-c5ccc(O)cc5)oc4c3)O[C@H](CO)[C@@H](O)[C@@H]2O)[C@H](O)[C@H](O)[C@H]1O (stereo partly specified) | 677
39 | O=C(Nc1ccc(F)c(Cl)c1)C1CCCN(c2ncnc3c2nc2n3CCCCC2)C1 (stereo unspecified) | 917
40 | O=C1CN(Cc2ccc(F)cc2Cl)CC2(CCCCC2)N1CC1CC1 | 1330
41 | CC(C)(C)c1ccc(-c2noc(CN3C(=O)COc4cc(Cl)ccc43)n2)cc1 | 1360
42 | COc1cccc(Nc2nc(C)c(C(=O)Nc3cc(F)cc(F)c3)s2)c1 | 1040
43 | COc1ccc(OCc2nc(-c3cccc(-c4ccn[nH]4)c3)no2)cc1 | 914
44 | Cc1ccc(-c2cc3c(=O)n(Cc4noc(-c5ccc6c(c5)OCO6)n4)ccn3n2)c(C)c1 | 1120
45 | COc1cccc(C(c2sc3ncnn3c2O)N2CCN(C(=O)c3ccco3)CC2)c1 (stereo unspecified) | 642
46 | Cc1nc(Nc2ccc(Br)cn2)sc1C(=O)N1CCN(C(C)C)CC1 | 630
47 | COc1ccc(C2CC(=O)c3c(C)nn(-c4nc5ccccc5[nH]4)c3C2)c(OC)c1 (stereo unspecified) | 1020
48 | CC(=O)c1ccc(NC(=O)c2cnc(-c3ccc(C(F)(F)F)cc3)nc2C)cc1 | 1030
49 | O=C(Nc1nc2c(s1)CCCC2C(=O)NCc1ccco1)c1ccc2c(c1)OCO2 (stereo unspecified) | 789
50 | COCCOC(=O)C1=C(C)NC(C)=C(C(=O)OC/C=C/c2ccccc2)C1c1cccc([N+](=O)[O-])c1 (stereo unspecified) | 1210
51 | COc1ccc(-c2nc3cc(C)ccc3o2)cc1NC(=O)NCc1ccco1 | 1010
52 | COCCNC(=O)Cc1c(C)n(Cc2ccccc2)c2nc(-c3ccccc3)nn2c1=O | 776

Results, then the molecule that gave them:

Row | RP-LC retention time [s] | Structure (SMILES)
53 | 916 | Cc1noc(C)c1-c1ccc(S(=O)(=O)NCc2ccccc2)cc1
54 | 543 | O=C(c1cccc(-n2cnnn2)c1)N1CCN(Cc2nc3ccccc3[nH]2)CC1
55 | 1030 | O=C(Cc1ccccc1Br)N1CCc2cc(-c3ccno3)ccc21
56 | 877 | Cc1ccc(CNC(=O)CSCc2nc3cccnc3n2C2CCCCC2)o1
57 | 784 | CSc1ccccc1NC(=O)C(=O)NCC(c1ccc2c(c1)CCCN2C)N1CCCC1 (stereo unspecified)
58 | 958 | CC(C)NC(=O)N1CCCC(c2cccc(C(=O)NCc3cccc(C(F)(F)F)c3)c2)C1 (stereo unspecified)
59 | 871 | CCc1ccc(S(=O)(=O)N2CCC(n3c(-c4ccoc4)nc4cccnc43)C2)cc1 (stereo unspecified)
60 | 632 | O=C(Cc1ccccc1F)N1CCc2[nH]cnc2C1c1ccccc1 (stereo unspecified)
61 | 849 | COc1ccc(S(=O)(=O)NCCS(=O)(=O)N2CCN(c3ccccc3)CC2)cc1
62 | 698 | O=C(Nc1cc(F)cc(F)c1)c1ccc(N2CCN(c3ccccn3)CC2)c([N+](=O)[O-])c1
63 | 620 | CO[C@H]1CN(C2CCN(S(=O)(=O)Cc3ccccc3F)CC2)[C@H]1c1ccncc1
64 | 796 | CC(C)N1C(=O)Cc2ccccc2C1C(=O)NCc1ccc(F)cc1 (stereo unspecified)
65 | 826 | COC(=O)c1cc(S(=O)(=O)N2CCCC2C(=O)Nc2cccc(OC)c2)cn1C (stereo unspecified)
66 | 705 | O=C(C1CCN(S(=O)(=O)Cc2ccc(F)cc2)CC1)N1CCOCC1
67 | 855 | Cc1ccc(C2=NC3(CCN(C(=O)c4ccc(F)cc4F)CC3)ON2)cc1
68 | 570 | COc1ccccc1CC(=O)N1CCC(Nc2ncnc3c2CCC3)C1 (stereo unspecified)
69 | 696 | CC(C)N1CCN(C(=O)C2CCN(c3nc4ccc(-c5ccccc5)nc4s3)CC2)CC1

Row | RP-LC retention time [s] | Structure (SMILES)
70 | 652 | O=C(c1cn2ccccc2n1)N1CCN(c2ccccc2F)CC1
71 | 559 | CN(C)c1cc(N2CCCC(NC(=O)c3ccccn3)C2)ncn1 (stereo unspecified)
72 | 660 | O=C1CCCN1CCCN1C(=O)[C@H]2CN(Cc3cccc(Cl)c3F)C[C@H]2C1=O
73 | 1040 | CC(C)c1noc(-c2cc(=O)n(CC(=O)Nc3ccc(F)c(F)c3)c3ccccc23)n1
74 | 656 | COc1cccc(CNC(=O)C2CCN(c3cc(N4CCSCC4)ncn3)CC2)c1
75 | 882 | COC(=O)c1sccc1S(=O)(=O)Nc1ccc(CC(=O)N2CCC(O)CC2)cc1
76 | 745 | O=C(c1ccc(F)c(F)c1)N1CCC(n2c(-c3ccoc3)nc3cccnc32)C1 (stereo unspecified)
77 | 840 | COc1ccccc1CNc1nccc(-n2nc(C)cc2C)n1
78 | 720 | CS(=O)(=O)N1CCC(OC2CCN(C(=O)Nc3cccc(F)c3)CC2)CC1
79 | 829 | O=C(N[C@H]1C[C@@H]2C[C@H]1CN2C(=O)Nc1ccc2c(c1)CCC2)c1ccccc1
80 | 730 | Cc1nnc(N2CCC(C(=O)NCCc3c[nH]c4ccccc34)CC2)c2nn(-c3ccccc3)c(C)c12
81 | 737 | Nc1nc(N2CCc3ccccc3C2)ncc1C(=O)NCc1ccccc1
82 | 844 | O=C(NCc1cc(F)cc(F)c1)C1CCN(c2nnc(-c3ccccc3)o2)CC1
83 | 854 | COc1ccc(NC(=O)C(C)C2CCN(C(=O)Nc3ccc(Cl)cc3)CC2)cc1 (stereo unspecified)
84 | 978 | O=C(Nc1cccc(OCc2nnc(-c3ccc(Cl)cc3)o2)c1)C1CCC1
85 | 700 | COc1ccc(-c2c(C)noc2NC(C)=O)cc1S(=O)(=O)N1CCN(c2ncccn2)CC1
86 | 900 | CC1CCCCN1S(=O)(=O)c1ccc2c(c1)CCC(=O)N2CC(=O)NCCc1ccccc1 (stereo unspecified)
